Source: US20030005484A1, “Microbiocidal and pesticidal aromatic aldehydes” (ProGuard, Inc., priority 1994, published 2003)

Columns and labels:
powdery mildew [1] = test: powdery mildew on Chardonnay grapes; assay type: in vivo
Method: The effect of 0.3% and 0.6% cinnamic aldehyde on pacific mites on grapevine leaves was examined cinnamic aldehyde was diluted to 0.3% and 0.6% in water. Each formulation was sprayed onto a 1 acre block of Chardonnay wine grapes with a tractor-drawn 500 gal. hydraulic sprayer at 150 psi at a rate of 150 gal./acre. As a control, a 10-acre block of Chardonnay wine grapes was treated the same day as the test formulations with the conventional treatment (Omite) per label directions. The number of mites was counted the day prior to spraying and 4 days after spraying. […] In fact, both concentrations reduced the number of mites to a larger extent than the positive control, conventional treatment, Omite. The 0.6% rate nearly eliminated live mites on grapevines. […] The 0.6% was slightly beter than the 0.3 % cinnamic aldehyde with respect to powdery mildew control.
The effect of 0.4% cinnamic aldehyde on powdery mildew and pacific mites on grapes was examined. Cinnamic aldehyde was diluted to 0.4% in water and sprayed onto a 1.8 acre test plot of Chardonnay grapevines with a tractor drawn, PTO powered sprayer, spraying at approximately 100 psi at a rate of 150 gal./acre. A 3 acre untreated plot served as a negative control. Additional controls included treatment of a 3.8 acre plot with stylet oil and a plot treated with a mix of Rubigan, Omite, and stylet oil, which cost appriximately $60.00/acre. Spray cards were placed randomly through the test block. Ten fruit clusters, which were generally completely covered with powdery mildew, in each of the four fields were flagged. […] Therefore, cinnamic aldehyde was effective at controlling both powdery mildew and pacific mites on grapes.

Roll Lesion nematode = test: vineyard grape vines, nematode infestation: roll lesion; assay type: in vivo
Method: The subject formulations were tested for ability to reduce grape vine infestation by root knot, ring, stubby root, and roll lesion nematodes. Grape vines (Harmony rootstock) in a vinyard were treated with 1000 ppm or 3000 ppm cinnamaldehyde in 2% Tween 80, the commercial anti-nematode agent Nemacur, or a formulation blank. The extent of nematode infestation was determined at the time of treatment and at 30 and 60 days post-treatment.

powdery mildew [2] = test: powdery mildew on roses, disease rating / MPDC after foliar spray; assay type: in vivo, Sphaerotheca pannosa; conditions: for Mean % Disease Control, rose powdery mildew: single 100 ml foliar spray; for Mean Percentage of Disease Control (MPDC), powdery mildew: five week trial
Method: Each formulation is evaluated for its effect on specific pests and/or plant host using any of the compounds of formula (1) as well as other components of the formulation such as Tween 80 and/or sodium bicarbonate, with the combination and effective amount of each component adapted for a particular application to minimize toxicity while maintaining or increasing the antipathogenic effect of the formulation. The effective amount of each component may be determined by systematically varying the amount of that component in a test formulation, treating a plant of interest with the test formulation, and monitoring the level of pest infestation compared to an untreated control plant. An effective amount of a test component is identified as the amount that controls the growth of the pathogen on the plant host, thus reducing the disease rating of the plant. The mean percentage disease […] (MPDC) can be calculated for each particular application. MPDC is defined by the formula: [formula] Eight cultivars of rose were tested to investigate the effect of a cinnamic aldehyde/NaHCO3 formulation on rust and spores. The cultivars used included Moss unnamed (Moss), […], Rosette Delize (Hybrid Tea), Rosa Rugosa Rubra (Rugosa), Abel Morrison (Hybrid perpetual), John Laing, Betty Prior, and Rose de Roi. […] The Hybrid Tea and Hybrid perpetual were rated 3 and the Rugosa was rated 1. […] Control plants received no treatment. […] Moreover, the treatment appeared to have induced systemic resistance. […] Plants were an average of 0.86 m apart. […] Controls were untreated plants. […] Weekly reviews were made of the various plants. […] of infected rose in dedicated experimental rose gardens were used. Four Mrs. John Laing (Hybrid perpetual) and two Marchionese of Londonderry (Hybrid perpetual) rose plants were treated with one of two formulations of coniferyl aldehyde. […] The first two Mrs. […] Mrs. […] Both Marchionese of Londonderry plants (P5 and P6) were rated 5 for powdery mildew and rust after Paulus and Nelson (supra). Two treatment formulae were used for this trial. […] Control plants were sprayed with water alone. The change in the rating from pre-treatment to post-treatment was calculated as the mean percentage of disease control (MPDC) as described herein. A three treatment experiment with cinnamic aldehyde formula, coniferyl aldehyde formula and combined cinnamic and coniferyl aldehyde formula was carried out on field grown roses known to be susceptible to powdery mildew. The plants were blocked by variety before fungicide treatments and were randomized as to the plants. Two varieties were used in each of the three experiments described below. […] In experiment 3 Comte de Chambord (Portland) and Madame Pierre Oger (Bourbon) were used. In Experiment 1, the effect of cinnamic aldehyde alone and in combination with Tween 80 and/or NaHCO3 component was evaluated in experiment 2 the effect of coniferyl aldehyde alone and in combination with Tween 80 and/or NaHCO3 was evaluated and in experiment 3 a combination of cinnamic aldehyde and coniferyl aldehyde with Tween 80 and/or NaHCo3 was evaluated. […] See Table 3 for the treatment protocol; formula 1 was used for these experiments. […] Plants were evaluated using the Paulus/Nelson scale just prior to and four days after treatment. […] Moreover, cinnamic aldehyde, coniferyl aldehyde, Tween 80 and NaHCO3 are used in the food industry and there is likely to be little toxicological risk to the consumer or handler from any horticultural or food crop sprayed in this way. Similarly, as these chemicals leave no toxic residue, there is little chance of any detrimental effect on the wider environment, and their use is likely to be compatible with current biological control methods such as beneficial insects and/or microorganisms.

[3] = tested on: melon aphid (Aphis gossypli Glover); test: melon aphid bioassay with Storax formulations; assay type: in vivo, Aphis gossypii; conditions: previous bioassays; plants sprayed to run-off at 1,000 ppm
Method: The purpose of this study was to determine the effect of STORAX incorporated into various formulations to evaluate its potential use as a synergist. Initial bioassays were conducted using STORAX at 0.6%, 1.0%, 2.0% with Tween 80 (1%) only. A second bioassay was conducted to evaluate the efficacy of STORAX (at 0.6%) alone and STORAX (at 0.6%) plus cinnamic aldehyde (at 0.1%) or alpha hexyl cinnamaldehyde (at 0.1%). […] STORAX combined with cinnamic aldehyde or α-hexyl cinnamic aldehyde reduced the time course of lethality and increases mortality. Moreover, the cinnamic aldehyde-STORAX formulation approaches the lethal time (LT) required at 2 h for kill of certain virus transmitting pests (e.g., brown citrus aphid).

[4] = CNMA 0.4% in water, 150 gal./acre, controls stylet oil, chemical mix

In the case of O=C/C=C/c1ccccc1 [cinnamic aldehyde], the “% INHIBITION (PM)” value (powdery mildew [1]; [4]) is reported as 88%, the “PM POST-SPRAY” value (powdery mildew [1]; [4]) is reported as 10 and the “PM PRE-SPRAY” value (powdery mildew [1]; baseline, CNMA 0.4% plot, stylet oil plot, chemical mix plot) is reported as 84. The “incidence of powdery mildew (not quantitated)” value (powdery mildew [1]; both treatments, 0.3% and 0.6% in water, Chardonnay) was “markedly reduced”, the “Roll Lesion, nematodes per gram root” value (Roll Lesion nematode; 1000 ppm in 2% Tween 80, 30 days post-treatment) was 2.7 per gram root and the “Roll Lesion, nematodes per gram root” value (Roll Lesion nematode; 1000 ppm in 2% Tween 80, 60 days post-treatment) was 0 per gram root. For the same compound, the “Roll Lesion, nematodes per gram root” value (Roll Lesion nematode; 1000 ppm in 2% Tween 80, day 0 (time of treatment)) was 2.9 per gram root, the “Roll Lesion, nematodes per gram root” value (Roll Lesion nematode; 3000 ppm in 2% Tween 80, 30 days post-treatment) was 0.56 per gram root and the “Roll Lesion, nematodes per gram root” value (Roll Lesion nematode; 3000 ppm in 2% Tween 80, day 0 (time of treatment)) was 1.0 per gram root. For the same compound, the “Mean % Disease Control, rose powdery mildew” value (“Mean % Disease Control” below) (powdery mildew [2]; aldehyde 5 g (mixture 2.5 g + 2.5 g) with NaHCO3 (80 g), four days) was 56%, the “Mean % Disease Control” value (powdery mildew [2]; aldehyde 5 g (mixture 2.5 g + 2.5 g) with T80 (10 g), four days) was 44% and the “Mean % Disease Control” value (powdery mildew [2]; aldehyde 5 g (mixture 2.5 g + 2.5 g) with T80 + NaHCO3 (formulas G, M, Q), four days) was 94%. The “Mean % Disease Control” value (powdery mildew [2]; aldehyde 5 g (mixture 2.5 g + 2.5 g), no additive, rated four days after treatment) was 50%, the “Mean Percentage of Disease Control (MPDC), powdery mildew” value (from here on “Mean Percentage of Disease Control”) (powdery mildew [2]; field rose Betty Prior, same single spray) was 64.3% and the “Mean Percentage of Disease Control” value (powdery mildew [2]; field rose John Laing, single spray 5 g cinnamic aldehyde, 10 g Tween 80, 80 g NaHCO3 per 1000 g) was 98.3%. For the same compound, the “Mean Percentage of Disease Control” value (powdery mildew [2]; field rose Rose de Roi, same single spray) was 100%, the “MPDC, powdery mildew, average for all three roses” value (powdery mildew [2]; field roses John Laing, Betty Prior, Rose de Roi, same single spray) was 90.7% and the “time plants remained free of powdery mildew and rust” value (powdery mildew [2]; potted or field roses sprayed to runoff with emulsion of cinnamic aldehyde and sodium bicarbonate, concomitantly saponin) was “up to 56 days”. For the same compound, the “powdery mildew after a single treatment” value (powdery mildew [2]; potted roses, ~100 ml foliar spray of 5 g cinnamic aldehyde, 80 g NaHCO3, 10 g Tween 80 per 1000 g, weekly saponin, observed 8 weeks) was “eradicative”, the “time at which an LD50 was observed” value [3] was 2 h and the “time at which an LD75 was observed” value [3] was 24 h.
